Results as given in patent publication US20260242829A1, “Use of Inhibitors to Increase Efficiency of CRISPR/Cas Insertions” (ASTRAZENECA AB, priority 2023, published 2026).

Tested on: HEK293T cells
Test: Effect of MMEJ and NHEJ inhibitors on CRISPR-Cas-induced double-strand break repair pathways and editing efficiency (amplicon sequencing, RIMA2)
Format: cell-based
Conditions: AZD7648 (1 µM) alone and in combination with Compound 1 at indicated concentrations, CRISPR/Cas9-mediated gene targeting, FIG. 4
Description: The effect of inhibitors of the MMEJ and NHEJ pathways on CRISPR-Cas-induced DNA double stranded break repair pathways was examined using the process shown schematically in FIG. 2A. Briefly, HEK293T cells were seeded into a 96-well plate 20 hours before transfection with plasmids encoding SpCas9 and a guide RNA (sgRNA) targeting CD34 in the presence and absence of single-stranded oligonucleotide donor (ssDNA). Two hours prior to transfection, the cells were submitted to inhibitor treatments, including the following conditions: a) 1 μM DNAPK inhibitor AZD7648 b) 1 μM DNAPK inhibitor AZD7648 in combination with compound 1, which was titrated in a 1:2 dilution series, ranging between 10 μM and 0.01 μM and corresponding DMSO control. Seventy hours post-transfection, cell confluence and eGFP-based transfection efficiencies were determined with the Incucyte SX5. Genomic DNA was extracted and editing outcome was analysed through deep-targeted amplicon sequencing and RIMA2 analysis (FIG. 2A) to determine knock-in frequencies as well as mutagenic DNA repair events, such as NHEJ and MMEJ outcomes (FIG. 2B).

SMILES | DNA double strand break repair pathway used after CRISPR/Cas gene targeting
Cc1cc2ncnn2cc1Nc1ncc2c(n1)n(C1CCOCC1)c(=O)n2C [AZD7648] | results in DNA double strand break repair by the more precise HDR pathway, and minimizes the contribution from the more error-prone MMEJ and NHEJ pathways
CN1CCN(CCOc2ccc(-c3nc4c(OC5(C)CC5)ncnc4n3Cc3ccccc3)c(Cl)c2)CC1 [Compound 1, 9-Benzyl-8-(2-chloro-4-(2-(4-methylpiperazin-1-yl)ethoxy)phenyl)-6-(1-methylcyclopropoxy)-9H-purine] | results in DNA double strand break repair by the more precise HDR pathway, and minimizes the contribution from the more error-prone MMEJ and NHEJ pathways
